Experimental data: patent US4118506A, “Pharmaceutical compositions containing 1,3-dithiol-2-ylidene malonate derivatives” (Nihon Nohyaku Co., Ltd., priority 1976, dated 1978)

Columns and labels:
[1] = test system: fatty liver induced by ethionine; assay: effect on fatty liver, ethionine model; assay type: in vivo, mouse (dd-strain); settings: 250 mg/kg oral
Description: There are known many factors inducing fatty liver. But, the fatty liver is grouped into a couple of patterns from the mechanism of lipid accumulation or metabolism of lipoprotein in the liver. Ethionine is a typical example which induces first pattern of fatty liver. It inhibits RNA and protein synthesis and destroys polysome of the liver cell. Fatty liver is induced by inhibition of the protein synthesis and disturbance of lipoprotein secretion.
Usually, fatty liver is closely related to the accumulation of triglyceride in the liver. In the present example, the degree of fatty liver and protective or therapeutic effect on the fatty liver was evaluated by measurement of triglyceride content in the liver.
The compounds of this invention and methionine were independently dissolved or suspended into olive oil and administered orally to the male mouse (4 week-old dd-strain) at the dose of 250 mg/kg. One hour before it, simultaneously with it or one hour after it, ethionine dissolved in equimolar NaOH solution was administered intraperitoneally at the dose of 200 mg/kg. Twenty four hours after the administration of ethionine, the animals were sacrificed and triglyceride content in the liver was determined by chromotropic acid method.

[2] = test system: chronic liver damage induced by thioacetamide; assay: therapeutic effect on chronic liver damage, thioacetamide model (BSP test); assay type: in vivo, rat (Sprague Dawley); settings: Group B, diet + 0.2% compound
Procedure: In the tests of this Example, TAA was repeatedly administered to animals to prepare test animals suffering from somewhat chronic liver damages, and then the present compounds were administered thereto to know whether or not the compounds were effective against chronic hepatitis.
The degree of the liver damage and the therapeutic effects of the compounds were evaluated according to BSP test. The BSP test is a method in which BSP (sulfobromophthalein sodium), a dye known to be quickly metabolized in and excreted from the liver, is intravenously injected into animals and, after a definite period of time, the blood is taken out to measure the amount of BSP remaining in the plasma. In case the animals are suffering from the liver damage, the dye will remain, according to the degree of the damage, at the stage where a major portion of BSP is metabolized and excreted in the case of normal animals.
Five groups of rats (Sprague Dawley strain) were treated as follows:
Group A: The rats were orally administered with 100 mg/kg of thioacetamide,at 3 days intervals for 36 days (12 times of the administration), then were submitted for 10 days to a normal diet.
Group B: The rats were orally administered with 100 mg/kg of thioacetamide at 3 days intervals for 36 days (12 times of the administration), then were submitted for 10 days to the normal diet + 0.2% of compound 4.
Group C: The rats were submitted to the normal diet as the control.
Five rats were sacrificed from each group at appropriate intervals for BSP (sulfobromophthalein sodium) test, the results of which were shown as amounts (mg) of BSP remaining in ldl of plasma.

[3] = test system: acute liver damage induced by dimethylnitrosamine; assay: protective effect on acute liver damage associated with centrilobular necrosis, dimethylnitrosamine model; assay type: in vivo, mouse (dd); settings: dimethylnitrosamine 0.05 ml/kg i.p.; 100 mg/kg oral 6 h before; 15 h after
Procedure: Bromobenzene (hereinafter abbreviated as BB), Dimethylnitrosamine (hereinafter abbreviated as DMN) and chloroform (hereinafter abbreviated as CF) resemble carbon tetrachloride in inducing liver damage associated with centrilobular necrosis.
Test compound or anethol trithion was orally administered to animal at the dose of 100 mg/kg. Twenty four hours after it (in the case of dimethylnitrosamine, exceptionally fifteen hours after it) the animals were sacrificed and blood samples were collected. Indices of hepatotoxicity adoptable in each chemical were measured, from which the efficacy of the compound was evaluated.
DMN male mouse 0.05 intraper-

[4] = test system: glucose metabolic function of liver; assay: effect on glucose metabolism (blood sugar); assay type: in vivo, mouse; settings: for Blood Sugar: 250 mg/kg oral 6 h before glucose 4.0 g/kg
Procedure: Methods: The test compounds dissolved in olive oil and administered orally at the dose of 250 mg/kg to the mice. After 6 hours, 4.0 g/kg of glucose was orally administered. The same amount of glucose was given to the control animals. 0.02 ml of blood was taken from caudal vein of the mice at 30, 60, 90 and 120 min. after glucose administration. Blood sugar was measured by the procedure of Somogyi-Nelson. Number of animals used was 5 to 6 mice for each treatment.

[5] = test system: acute liver damage induced by carbon tetrachloride; assay: protective effect on acute liver damage associated with centrilobular necrosis, carbon tetrachloride model; assay type: in vivo, mouse (dd strain); settings: 250 mg/kg oral 6 h before CCl4, 24 h after CCl4
Description: Carbon tetrachloride (CCl4) administration induces centrilobular necrosis of the liver associated with loss of diphosphopyridine nucleotide, hepatic glycogen, coenzyme A and increase in neutral fat. Release of several enzymes from the hepatocytes, and increase of enzyme activities in the plasma are recognized as the result of the damage of the liver. A suitable means for evaluating the degree of damage induced by CCl4 or the degree of protection afforded by drugs is to study the plasma glutamic-pyruvic transaminase (p-GPT) activity.
Methods: The test compounds were dissolved or suspended in olive oil and administered orally at the dose of 250 mg/kg to the mice (Four-week-old male mice-dd strain). After 6 hours, CCl4 was administered orally (0.05 ml/kg as olive oil solution). Animals were killed 24 hours after CCl4 administration, and the liver was grossly observed. The plasma was obtained by centrifugation. Activities of p-GPT were determined by the method of Reitman and Frankel and expressed in Karmen units.
Score for liver damage index was as follows:
Each figure indicates average of 5 to 6 mice. Values of p-GPT over 1,000 Karmen unit regarded as 1,000 for calculation of average for convenience.

[6] = test system: alcohol metabolic function of liver; assay: effect on concentration of ethyl alcohol in the blood; assay type: in vivo, mouse; settings: 250 mg/kg oral 6 h before ethanol 1,000 mg/kg
Procedure: The test compounds are dissolved or suspended in olive oil and administered orally at the dose of 250 mg/kg to the mice. After 6 hours, 1,000 mg/kg of ethyl alcohol was given orally. Blood was taken in a capillary from caudal vein at the time indicated in the results. The plasma was obtained by centrifugation. The concentration of ethyl alcohol in the plasma was measured by FID type gas liquid chromatography. Five mice were used for each group.

CC(C)OC(=O)C(C(=O)OC(C)C)=C1SC=CS1 [Compound 4, diisopropyl 1,3-dithiol-2-ylidene malonate]
Triglyceride ([1]; 1 hr after ethionine 200 mg/kg i.p.): 10.0 ± 1.15 mg/g-liver
Triglyceride ([1]; 1 hr before ethionine 200 mg/kg i.p.): 9.1 ± 1.15 mg/g-liver
Triglyceride ([1]; simultaneously with (0 hr) ethionine 200 mg/kg i.p.): 5.4 ± 0.61 mg/g-liver
BSP remaining in plasma ([2]; 2 days after compound administration): 7.2 ± 2.5 mg/dL
BSP remaining in plasma ([2]; 5 days after compound administration): 2.8 ± 0.7 mg/dL
BSP remaining in plasma ([2]; 10 days after compound administration): 0.5 ± 0.1 mg/dL
BSP [3]: 10 ± 2.0 mg/dL
p-GPT [3]: 204 ± 44 Karmen unit
Blood Sugar, percent of 0 min value ([4]; 0 min): 100%
Blood Sugar ([4]; 0 min): 123 ± 10.9 mg/dL
Blood Sugar ([4]; 30 min): 282 ± 25.2 mg/dL
Blood Sugar ([4]; 60 min): 236 ± 19.7 mg/dL
Blood Sugar ([4]; 90 min): 159 ± 18.3 mg/dL
Blood Sugar ([4]; 120 min): 138 ± 14.4 mg/dL
Blood Sugar, percent of 0 min value ([4]; 30 min): 229%
Blood Sugar, percent of 0 min value ([4]; 60 min): 192%
Blood Sugar, percent of 0 min value ([4]; 90 min): 129%
Blood Sugar, percent of 0 min value ([4]; 120 min): 112%
Liver Damage Index ([5]; 0 normal, 2 slightly recognized, 4 clearly observable, 6 heavy damage, average of 5 to 6 mice): 0.0
p-GPT ([5]; values over 1,000 taken as 1,000): 36 Karmen units
Concentration of Ethyl alcohol in Plasma ([6]; 0 min): 25 ± 12 ppm
Concentration of Ethyl alcohol in Plasma ([6]; 5 min): 582 ± 143 ppm
Concentration of Ethyl alcohol in Plasma ([6]; 15 min): 468 ± 30 ppm
Concentration of Ethyl alcohol in Plasma ([6]; 30 min): 220 ± 87 ppm
Concentration of Ethyl alcohol in Plasma ([6]; 60 min): 29 ± 17 ppm
Concentration of Ethyl alcohol in Plasma ([6]; 120 min): not detected
